How the values were obtained:
Format in all cases: biochemical
mouse pol ι = molecular target: T1, mouse pol ι (Mus musculus, UniProt Q6R3M4); assay: DNA polymerase assay, pol ι
T1 construct: His6 (C); made in house
Text: (§1) Pol α was purified from calf thymus by immuno-affinity column chromatography, as described by Tamai et al.. Recombinant rat pol β was purified from E. coli JMpβ5, as described by Date et al.. The human pol γ catalytic gene was cloned into pFastBac. Histidine-tagged enzyme was expressed using the BAC-TO-BAC HT Baculovirus Expression System according to the supplier’s manual (Life Technologies, MD, USA) and purified using ProBoundresin (Invitrogen Japan, Tokyo, Japan). Human pols δ and ɛ were purified by nuclear fractionation of human peripheral blood cancer cells (Molt-4) using the second subunit of pols δ and ɛ-conjugated affinity column chromatography, respectively. A truncated form of human pol η (residues 1–511) tagged with His6 at its C-terminal was expressed in E. coli cells and purified as described by Kusumoto et al.. A recombinant mouse pol ι tagged with His6 at its C-terminal was expressed and purified by Ni-NTA column chromatography as described elsewhere (Masutani et al., in preparation). […]
(§2) The compounds were dissolved in distilled dimethyl sulfoxide (DMSO) at various concentrations and sonicated for 30 sec. […] Activity without the inhibitor was considered 100%, and the remaining activity at each concentration of the inhibitor was determined relative to this value. […]

human pol κ = molecular target: T2, human pol κ (Homo sapiens, UniProt Q9UBT6); assay: DNA polymerase assay, pol κ
T2 construct: A truncated form of pol κ (residues 1–560) with 6 x His-tags attached at the C-terminus; 6xHis (C); made in house; host or cells: E. coli
T2 sequence (Q9UBT6 1-560): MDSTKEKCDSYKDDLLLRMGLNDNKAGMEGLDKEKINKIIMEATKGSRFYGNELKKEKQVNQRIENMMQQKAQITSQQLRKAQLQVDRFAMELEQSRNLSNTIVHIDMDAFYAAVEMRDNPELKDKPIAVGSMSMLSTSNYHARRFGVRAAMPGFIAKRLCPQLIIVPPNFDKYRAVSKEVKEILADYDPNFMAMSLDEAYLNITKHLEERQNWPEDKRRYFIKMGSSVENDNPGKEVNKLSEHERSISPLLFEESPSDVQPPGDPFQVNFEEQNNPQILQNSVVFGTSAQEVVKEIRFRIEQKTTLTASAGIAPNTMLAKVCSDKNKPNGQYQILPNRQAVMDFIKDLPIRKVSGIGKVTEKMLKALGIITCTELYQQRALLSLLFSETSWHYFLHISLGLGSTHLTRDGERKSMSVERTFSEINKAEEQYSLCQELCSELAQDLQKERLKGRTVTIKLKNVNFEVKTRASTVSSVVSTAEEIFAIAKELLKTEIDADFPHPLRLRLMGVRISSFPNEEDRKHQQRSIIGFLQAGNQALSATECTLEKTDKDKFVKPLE
Text: as §1, §2

[1] = molecular target: T3, Klenow fragment of E. coli pol I (Escherichia coli, UniProt P00582); assay: DNA polymerase assay, Klenow fragment; conditions: 100 μM
T3 construct: the Klenow fragment of pol I from E. coli; purchased Worthington Biochemical Corp. (Freehold, NJ, USA)
T3 sequence (P00582 324-928): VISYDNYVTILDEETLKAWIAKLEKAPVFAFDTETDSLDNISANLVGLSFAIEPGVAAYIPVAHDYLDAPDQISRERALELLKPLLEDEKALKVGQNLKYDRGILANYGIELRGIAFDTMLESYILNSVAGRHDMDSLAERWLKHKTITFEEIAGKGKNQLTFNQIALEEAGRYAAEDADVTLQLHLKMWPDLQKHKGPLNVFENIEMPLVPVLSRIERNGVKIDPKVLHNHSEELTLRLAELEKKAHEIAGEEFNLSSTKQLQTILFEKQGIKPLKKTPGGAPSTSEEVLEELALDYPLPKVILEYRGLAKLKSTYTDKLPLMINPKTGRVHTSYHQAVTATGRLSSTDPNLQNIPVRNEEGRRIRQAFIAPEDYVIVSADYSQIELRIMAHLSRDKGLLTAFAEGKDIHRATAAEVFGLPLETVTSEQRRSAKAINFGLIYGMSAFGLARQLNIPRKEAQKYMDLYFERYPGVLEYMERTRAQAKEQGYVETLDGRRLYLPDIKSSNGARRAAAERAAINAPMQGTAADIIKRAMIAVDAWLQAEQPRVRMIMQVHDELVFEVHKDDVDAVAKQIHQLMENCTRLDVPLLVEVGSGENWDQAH
Text: as §1, §2

T1 sequence (Q6R3M4 whole entry): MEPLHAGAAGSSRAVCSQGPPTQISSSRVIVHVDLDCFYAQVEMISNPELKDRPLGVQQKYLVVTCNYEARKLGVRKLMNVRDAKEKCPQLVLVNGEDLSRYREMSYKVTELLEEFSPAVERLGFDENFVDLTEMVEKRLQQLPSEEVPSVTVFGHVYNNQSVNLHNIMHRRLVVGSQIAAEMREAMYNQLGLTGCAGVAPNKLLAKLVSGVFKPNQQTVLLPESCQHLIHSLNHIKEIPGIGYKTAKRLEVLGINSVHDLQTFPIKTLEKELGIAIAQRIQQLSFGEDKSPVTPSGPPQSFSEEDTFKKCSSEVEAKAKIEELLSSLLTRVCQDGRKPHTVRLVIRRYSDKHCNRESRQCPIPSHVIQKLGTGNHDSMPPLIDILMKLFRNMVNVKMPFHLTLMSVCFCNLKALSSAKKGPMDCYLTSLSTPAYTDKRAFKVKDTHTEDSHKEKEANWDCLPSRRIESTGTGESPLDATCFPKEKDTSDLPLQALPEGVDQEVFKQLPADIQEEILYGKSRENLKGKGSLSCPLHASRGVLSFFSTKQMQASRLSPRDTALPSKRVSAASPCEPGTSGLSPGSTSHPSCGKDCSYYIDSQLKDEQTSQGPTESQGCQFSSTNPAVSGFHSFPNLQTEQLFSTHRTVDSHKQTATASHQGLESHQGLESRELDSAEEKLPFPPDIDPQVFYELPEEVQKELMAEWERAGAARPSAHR

Structure (SMILES): C/C=C/c1occ(C(=O)c2c(OC)cc(OC)cc2C(=O)OC)c(=O)c1OC [compound 1, 3-O-methylfunicone]
- effect on pol ι activity (mouse pol ι; 100 μM): selectively inhibit
- IC50 (mouse pol ι; poly(dA)/oligo(dT)18 and dTTP, 0.05 units enzyme, read-out: 50% inhibition of pol ι (IC50)): 34.3 µM
- effect on pol κ activity (human pol κ; 100 μM): selectively inhibit
- IC50 (human pol κ; poly(dA)/oligo(dT)18 and dTTP, 0.05 units enzyme, read-out: 50% inhibition of pol κ (IC50)): 12.5 µM
- effect on Klenow fragment of E. coli pol I activity [1]: no effect

Reference: article PMC2810227, “3-O-Methylfunicone, a Selective Inhibitor of Mammalian Y-Family DNA Polymerases from an Australian Sea Salt Fungal Strain” (Marine Drugs, 2009)
